From patent publication US12054447B2, “PCNA inhibitors” (City of Hope, priority 2015, dated 2024)
“Also recorded” adds a separate entry of the source.

Tests used:
Liver microsome assay = assay type: in vitro ADME, human
Text: FIG. 11. AOH1160 stability in a liver microsome assay. Liver is a major organ responsible for drug metabolism. We tested the stability of AOH1160 in a liver microsome assay. By analyzing the metabolites, we determined a major pathway responsible for AOH1160 metabolism.
Liver is a major organ responsible for drug metabolism. We tested the stability of AOH1160 in a liver microsome assay (FIG. 11). By analyzing the metabolites, we determined a major pathway responsible for AOH1160 metabolism.

CAKI-1 = assay: NCI-60 panel test; assay type: cell-based; settings: Homo sapiens; CAKI-1, NCI-60 5-dose study
Description: FIG. 7. NCI-60 panel test. The effect of AOH1160 on growth of the NCI-60 panel, which consists of 60 cancer cell lines representing 9 major cancer types, was tested in a 5-dose study. Shown are the Log IC50 values determined for each cell line. […] This study was performed by the National Institute of Cancer.
As observed in FIG. 7, the effect of AOH1160 on growth of the NCI-60 panel, which consists of 60 cancer cell lines representing 9 major cancer types, was tested in a 5-dose study. Shown are the Log IC50 values determined for each cell line.

[1] = test system: small cell lung cancer cells; assay: Killing of small cell lung cancer cells; assay type: cell-based; settings: FIG. 14B
NB cell lines = assay: Cell viability assay on NB cell lines; assay type: cell-based, human; settings: for concentrations that selectively kill neuroblastoma cells: FIG. 14A
Description: To measure the effect of the compounds on cell growth, cells were seeded at 3×10^4/ml into a 96-well plate. Once attached, cells were treated with various concentrations of AOH1160 for 72 h. Cell growth was measured by the CellTitor-Glo assay (Promega, Madison, WI) according to the manufacturer's instructions. To measure apoptosis, cells were seeded at 1×10^5/ml onto a chamber slide. Once attached, cells were treated with the 500 nM AOH1160 for 24 h. Cells were fixed and analyzed by a TUNEL assay using the TMR red in situ cell death detection kit (Roche Diagnostics, Indianapolis, IN).
To identify small molecule compounds that target the PCNA and FEN1 interface, we started with known crystal structures of the PCNA/FEN1 complex that are available from the RCSB protein database. To improve the likelihood of identifying novel small molecules that specifically target caPCNA, we focused our virtual screen on the binding pocket in PCNA delineated by residues L126 and Y133 and screened databases consisting of more than 6.8 million chemical structures available at the AMRI. A set of 57 compounds identified by the virtual screen was acquired and further tested in a cell viability assay. A compound (AOH39) was selected for further development due to its anti-cancer activity and selectivity.

7SM0032 = assay: Cell cycle analysis (PI, flow cytometry); assay type: cell-based, human; settings: for cell cycle effect on normal cells: 7SM0032
Description: Cells were seeded at 1×10^5/ml in a 6-well plate. Once attached overnight, cells were treated with or without AOH1160 for 6 or 24 h. After being fixed in 60% ethanol and stained with propidium iodide (PI), cells were analyzed by flow cytometry to determine the cellular PI fluorescence intensity. The flow cytometry data were analyzed by the FlowJo program to model various cell populations.

SK-N-DZ = assay: Clonogenic assay with cisplatin; assay type: cell-based, human; settings: cisplatin with or without 500 nM AOH1160 for 18 h, 3 weeks
Description: Three hundred human SK-N-DZ NB cells were seeded onto a 60-mm tissue culture dish. Once attached overnight, cells were treated with or without various concentrations of cisplatin in the presence or absence of 500 nM of AOH1160 for 18 h. Cells were washed twice with growth medium and were cultured in fresh medium for 3 weeks to allow surviving cells to form colonies. The medium was changed every 3 days throughout the experiment. The colonies formed under each treatment conditions were counted after being stained with 0.5% crystal violet.

[2] = test system: SK-N-BE(2)c derived xenograft tumors; settings: 30 mg/kg twice daily (BID) by oral gavages, vs vehicle
[3] = test system: replication fork extension; assay: DNA fiber assay; assay type: cell-based; settings: CldU / IdU labeling before and after treatment
Description: FIGS. 3A-3B. […] Synchronized cells were sequentially incubated in the presence of CldU and IdU before and after AOH1160 treatment, respectively. Cells sequentially incubated with the same two nucleotide analogues but without AOH1160 were used as control. Images of FIG. 3A depict representative images of the labeled DNA strands from cells treated with or without AOH1160. FIG. 3B depicts the lengths of CldU (light gray) and IdU (dark gray) incorporated DNA segments measured from more than 30 independent DNA strands in cells treated with or without AOH1160 were averaged and graphed with standard deviations.

[4] = test system: HR-mediated DSB repair in DR-GFP cells; assay: DSB repair assay, DR-GFP reporter; assay type: cell-based; settings: I-SceI-induced DSB, GFP-positive cells by flow cytometry
Description: The human NB cell lines, SK-N-DZ, SK-N-BE(2)c, SK-N-AS, and LAN-5 obtained from the American Type Culture Collection (Rockville, MD), were cultured in DMEM with 10% fetal bovine serum (FBS), 100 units/ml penicillin, and 100 μg/ml streptomycin in the presence of 5% CO2 at 37° C. Human PBMCs from a healthy donor were purchased from Sanguine BioSciences (Valencia, CA) and grown in RPMI1640 with 10% FBS, 100 units/ml penicillin, 100 μg/ml streptomycin, and 10 ng/ml IL-2 in the presence of 5% CO2 at 37° C. Human embryonic progenitor cell line 7SM0032 was acquired from Millipore (Billerica, MA) and grown in the hEPM-1 Media Kit purchased from the same company. The plasmid pCBASce expresses the rare cutting I-SceI meganuclease. The U20S-derived cell lines, DR-GFP and EJ5-GFP, each contain a stably transfected reporter gene for DSB repair mediated by HR and end joining (EJ), respectively. These cell lines were cultured in DMEM medium with 10% FBS at 37° C. in the presence of 5% CO2.
DR-GFP and EJ5-GFP cell lines were seeded at 2.5×10^4 cells/cm^2 in a 12-well plate. […] The HR and EJ-mediated DSB repair, indicated by the restoration of a functional GFP gene in the respective cell lines, were quantified by measuring the relative abundance of GFP-positive cells by flow cytometry 3 days after transfection.

[5] = Pharmacokinetics (PK) of AOH1160 in animals; assay type: in vivo, Rat; settings: for AUC(0-inf) / Cmax / Tmax / half-life: rat, in vivo, po, 20 mg/kg, Rat PO 20 mg/kg

Compound: COc1cccc(Oc2ccccc2NC(=O)CNC(=O)c2cccc3ccccc23)c1 [PCNA7/ AOH1996]
- stability in a liver microsome assay (Liver microsome assay; NADPH dependent metabolism): stable to NADPH dependent metabolism; also recorded: stable in a liver microsome assay
- GI50 (CAKI-1): 912 nM
- concentrations that selectively kill small cell lung cancer cells [1]: below micromolar concentrations
- concentrations that selectively kill neuroblastoma cells (NB cell lines): below micromolar concentrations
- cell cycle effect on normal cells (7SM0032): exerted little effect on normal cells

Compound: O=C(CNC(=O)c1cccc2ccccc12)Nc1ccccc1Oc1ccccc1 [AOH1160]
- metabolic pathway in liver microsomes (Liver microsome assay; human liver microsomes, NADPH): mainly metabolized through mono- and di-hydroxylation in a NADPH-dependent manner
- sensitivity to cisplatin (colony formation) (SK-N-DZ): more sensitive to cisplatin treatment in the presence of AOH1160 than in its absence
- tumor burden [2]: significantly reduced tumor burden
- replication fork extension [3]: inhibition of replication fork extension
- HR-mediated DSB repair [4]: blocks DNA repair in DR-GFP
- GI50 (CAKI-1): 355 nM
- oral availability ([5]; animals): orally available
- AUC(0-inf) ([5]; BID dosing): 429 ± 195 ng·h/mL
- Cmax ([5]; BID dosing): 73 ± 23 ng/mL
- Tmax ([5]; BID dosing): 6 h
- half-life ([5]; BID dosing): 4.3 ± 1.7 h
- AUC(0-inf) ([5]; Single dosing): 383 ± 110 ng·h/mL
- Cmax ([5]; Single dosing): 50 ± 31 ng/mL
- Tmax ([5]; Single dosing): 3.3 ± 2.3 h
- half-life ([5]; Single dosing): 3.8 ± 31 h
- concentrations that selectively kill small cell lung cancer cells [1]: below micromolar concentrations
- concentrations that selectively kill neuroblastoma cells (NB cell lines): below micromolar concentrations
- IC50 (NB cell lines; Homo sapiens, multiple NB cell lines, read-out: IC50 range over NB cell lines): 180 to 220 nM
- increase in compound potency over AOH39 in cell viability assays (NB cell lines; NB cells): 6-7 fold
- cell cycle effect on normal cells (7SM0032): exerted little effect on normal cells
- cell cycle effect (7SM0032; 7SM0032 cells, 500 nM): doesn't significantly change the cell cycle profiles
